From ChEMBL document CHEMBL1139847, “Carbonic anhydrase inhibitors. DNA cloning, characterization, and inhibition studies of the human secretory isoform VI, a new target for sulfonamide and sulfamate inhibitors” (J Med Chem, 2007)

These compounds were tested against Carbonic anhydrase 9 (Homo sapiens, UniProt Q16790).

**Q.** `Cc1ccc(S(N)(=O)=O)cc1` [P-TOLUENESULFONAMIDE] was tested. Which Ki did it give?
**A.** 460 nM

The compounds below were run against Carbonic anhydrase 6 (Homo sapiens, UniProt P23280).
Sequence of Carbonic anhydrase 6 (P23280 whole entry): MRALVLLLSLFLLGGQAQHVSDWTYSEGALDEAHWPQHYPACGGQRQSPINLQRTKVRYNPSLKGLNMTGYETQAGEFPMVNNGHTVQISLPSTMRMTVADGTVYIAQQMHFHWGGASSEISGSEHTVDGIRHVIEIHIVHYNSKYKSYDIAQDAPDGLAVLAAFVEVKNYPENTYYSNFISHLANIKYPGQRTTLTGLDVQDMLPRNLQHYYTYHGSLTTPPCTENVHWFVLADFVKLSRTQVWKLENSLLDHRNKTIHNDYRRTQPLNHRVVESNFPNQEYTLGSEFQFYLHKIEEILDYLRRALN

**Q.** `Nc1nccc(Nc2ccc(S(N)(=O)=O)cc2)n1` was tested. Which Ki did it give?
**A.** 86 nM

**Q.** For `Nc1ccc(S(N)(=O)=O)cc1Br`, which Ki is on record?
**A.** 4680 nM

**Q.** How did the Ki turn out when `Cc1ccc(S(N)(=O)=O)cc1` [P-TOLUENESULFONAMIDE] was run?
**A.** 1580 nM

**Q.** How did the Ki turn out when `NS(=O)(=O)c1ccc(C(=O)O)cc1` [CARZENIDE] was run?
**A.** 887 nM

**Q.** `Nc1ccc(S(N)(=O)=O)cc1` [SULFANILAMIDE] was tested. Which Ki did it give?
**A.** 941 nM

**Q.** Which Ki does the source give for `NCc1ccc(S(N)(=O)=O)cc1` [MAFENIDE] here?
**A.** 4800 nM

**Q.** How did the Ki turn out when `NS(=O)(=O)c1ccc(S(=O)(=O)Nc2cccc3c(Cl)c[nH]c23)cc1` was run?
**A.** 47 nM

**Q.** `NNc1ccccc1S(N)(=O)=O` was tested. Which Ki did it give?
**A.** 1090 nM

**Q.** How did the Ki turn out when `NNc1ccc(S(N)(=O)=O)cc1` was run?
**A.** 1270 nM

**Q.** `Nc1ccc(S(N)(=O)=O)cc1I` was tested. Which Ki did it give?
**A.** 1020 nM

**Q.** With `Cn1nc(S(N)(=O)=O)sc1=N` as the compound, how does the Ki read?
**A.** 740 nM

**Q.** With `NS(=O)(=O)c1ccc(CO)cc1` as the compound, how does the Ki read?
**A.** 6680 nM

**Q.** For `Nc1ccccc1S(N)(=O)=O`, which Ki is on record?
**A.** 772 nM

**Q.** How did the Ki turn out when `Nc1ccc(S(=O)(=O)NCCc2ccc(S(N)(=O)=O)cc2)cc1` was run?
**A.** 24 nM

**Q.** How did the Ki turn out when `Nc1ccc(S(N)(=O)=O)cc1Cl` was run?
**A.** 1100 nM

**Q.** `CCN[C@H]1CN(CCCOC)S(=O)(=O)c2sc(S(N)(=O)=O)cc21` [BRINZOLAMIDE] was tested. Which Ki did it give?
**A.** 0.9 nM

**Q.** Which Ki does the source give for `Nc1ccc(S(=O)(=O)Nc2nnc(S(N)(=O)=O)s2)cc1` here?
**A.** 73 nM

**Q.** With `Nc1ccc(S(N)(=O)=O)cc1F` as the compound, how does the Ki read?
**A.** 96 nM

**Q.** With `Nc1ccc(S(=O)(=O)NCc2ccc(S(N)(=O)=O)cc2)cc1` as the compound, how does the Ki read?
**A.** 55 nM

**Q.** For `NS(=O)(=O)c1ccc(CCO)cc1`, which Ki is on record?
**A.** 4150 nM
